Laboratory results from ChEMBL document CHEMBL1128655, “3-Fluoro-2-(4-methylpiperazin-1-yl)-5,12-dihydro-5-oxobenzoxazolo[3,2-a]quinoline-6-carboxylic acid: Synthesis and In vitro cytotoxic activity” (Bioorg Med Chem Lett, 1995).
≈ marks a conversion by molar mass, not a printed value.

Tests used:
Assay type in all cases: functional, cell-based
SNU1 = assay: In vitro cytotoxic activity against human tumor SNU 1 (stomach) cell line
SNU-354 = assay: In vitro cytotoxic activity against human tumor SNU 354 (liver) cell line
SNU-C4 = assay: In vitro cytotoxic activity against human tumor SNU C-4(colon) cell line
[1] = Homo sapiens, SNU1, read-out: IC50
[2] = Homo sapiens, SNU-354, read-out: IC50
[3] = Homo sapiens, SNU-C4, read-out: IC50

| Compound | IC50 (SNU1; [1]) [µg/mL] | IC50 (SNU-354; [2]) [µg/mL] | IC50 (SNU-C4; [3]) [µg/mL] | IC50 (SNU1; snu1) [µg/mL] | IC50 (SNU-354; snu-354) [µg/mL] | IC50 (SNU-C4; snu-c4) [µg/mL] |
| --- | --- | --- | --- | --- | --- | --- |
| O=C(O)c1c(=O)c2cc(F)c(N3CCNCC3)cc2n2c1oc1ccccc12 | 15.3 (≈ 40.1 µM) | 19.8 (≈ 51.9 µM) | 13.4 (≈ 35.1 µM) |  |  |  |
| CN1CCN(c2cc3c(cc2F)c(=O)c(C(=O)O)c2oc4ccccc4n23)CC1.Cl | 2 | 1.9 | 1.8 |  |  |  |
| CC(=O)N1CCN(c2cc3c(cc2F)c(=O)c(C(=O)O)c2oc4ccccc4n23)CC1 | > 200 | > 200 | > 200 |  |  |  |
| COc1cccc2c1C(=O)c1c(O)c3c(c(O)c1C2=O)C[C@@](O)(C(=O)CO)C[C@@H]3O[C@H]1C[C@H](N)[C@H](O)[C@H](C)O1 [DOXORUBICIN] | < 0.5 | < 0.5 | < 0.5 |  |  |  |
| CISPLATIN |  |  |  | 1.4 | 4.1 | 2.8 |
